Data set [1] relates to houseflies, susceptible strain (SNAIDM). The data set is described as follows: Insecticidal activity, housefly, susceptible strain (SNAIDM), Table I. The format is in vivo. The following applies: for SNAIDM alone (insecticidal activity; head is a drawing): compound alone; for SNAIDM with P.B. (insecticidal activity; head is a drawing): with piperonyl butoxide synergist. From the text:
(§1) Metabolic studies involving insects, mice, and fish and a model ecosystem (such as described in U.S. Pat. No. 3,787,505) and insecticidal activity studies generally involving flies and mosquitoes have shown that both the symmetrical and the asymmetrical compounds of the present invention are effective. Thus, the new compounds can be represented by the general formula: [drawing 3] where R1 is H or Cl and R2 is CH3 or Cl, X and X^1 are the same or different and each is selected from the group consisting of C1 to C3 alkyl groups and C1 to C4 alkoxy groups.
(§2) In addition, DCP was tested for mouse toxicity, fish toxicity and biodegradibility.

Data set [2] deals with houseflies, DDT resistant strain (RSP). The data set is described as follows: Insecticidal activity, housefly, resistant strain (RSP), Table I. The class given is in vivo. The settings on record: for RSP alone (insecticidal activity; head is a drawing): compound alone; for RSP with P.B. (insecticidal activity; head is a drawing): with piperonyl butoxide synergist.
Source text: as §1, §2

The next data set has as its system fish. Kind of data set: Fish toxicity, Table I. The format is in vivo. As for the experimental part: as §2
For another data set, the system named is mice. The data set is described as follows: Mouse toxicity, oral, Table I. The following applies: for mouse toxicity (head is a drawing): oral administration. The format is in vivo. How it is done:
as §2

A short description of data set [3]: Biodegradability studies, general statement.
Source text: as §1, §2

Each structure is given as a SMILES string.

`COc1ccc(C(c2ccc(OC)cc2)C(Cl)(Cl)Cl)cc1` [Methoxychlor, reference compound]: in data set [1], the “SNAIDM alone (insecticidal activity; head is a drawing)” value (“SNAIDM alone” for short) came out at 45.0 and the “SNAIDM with P.B. (insecticidal activity; head is a drawing)” value is reported as 3.5. Moreover, in data set [2] (resistant strain), the “RSP alone (insecticidal activity; head is a drawing)” value (shortened to “RSP alone”) stood at 48 and the “RSP with P.B. (insecticidal activity; head is a drawing)” value was 4.6. The “fish toxicity (head is a drawing)” value in the data set with fish came out at 1.
With `Clc1ccc(C(c2ccc(Cl)cc2)C(Cl)(Cl)Cl)cc1` [DDT, 1,1,1-trichloro-2,2-bis(p-chlorophenyl) ethane, reference compound], the “mouse toxicity (head is a drawing)” value with mice is 200. Further, in data set [1], the “SNAIDM alone” value worked out at 14.0 and the “SNAIDM with P.B. (insecticidal activity; head is a drawing)” value was 5.5. Further, in data set [2] (resistant strain), the “RSP alone” value is given as 270 and the “RSP with P.B. (insecticidal activity; head is a drawing)” value is 70. In addition, the “fish toxicity (head is a drawing)” value in the data set with fish was determined as 0.30.
Turning to `COc1ccc(C(c2ccc(OC)cc2)C(C)Cl)cc1` (stereo not drawn) [DCP, 1,1-bis(p-methoxyphenyl)-2-chloropropane], the “mouse toxicity (head is a drawing)” value with mice is reported as greater than 1000. Further, in the data set with mice (oral administrations to mice), the “mouse toxicity (in words)” value was “considerably less toxic than DDT and comparable to methoxychlor”. Moreover, the “biodegradability (in words)” value in data set [3] was “more biodegradable than methoxychlor”. Moreover, the “toxicity to susceptible strain of houseflies, alone (in words)” value in data set [1] (alone) was “not as toxic as DDT or methoxychlor”. In addition, in data set [1], the “SNAIDM alone” value is given as 935 and the “SNAIDM with P.B. (insecticidal activity; head is a drawing)” value is on record as 3.5. For the same molecule, the “toxicity to susceptible strain of houseflies with piperonyl butoxide (in words)” value in data set [1] (with P.B.) is “at least as toxic as methoxychlor and considerably more toxic than DDT”. The “toxicity to DDT resistant strain of houseflies, alone (in words)” value in data set [2] (DDT resistant strain, alone) was “not as toxic as DDT or methoxychlor”. Moreover, in data set [2] (resistant strain), the “RSP alone” value is greater than 500 and the “RSP with P.B. (insecticidal activity; head is a drawing)” value came out at 4.1. Moreover, the “toxicity to resistant strain of houseflies with piperonyl butoxide (in words)” value in data set [2] (resistant strain, with P.B.) is “at least as toxic as methoxychlor and considerably more toxic than DDT”. Also, in the data set with fish, the “fish toxicity (head is a drawing)” value is recorded as greater than 3 and the “fish toxicity (in words)” value is recorded as “less toxic than either DDT or methoxychlor”.

The values above are taken from patent US4118424A, “Biodegradable insecticides” (priority 1976, dated 1978).
